Source: patent US11236086B2, “Substituted pyrrolopyridines as inhibitors of activin receptor-like kinase” (BLUEPRINT MEDICINES CORPORATION, priority 2017, dated 2022)

Assays:
[1] = target: T1, ALK2R206H (mutant ALK2, N-terminally tagged with GST) (Homo sapiens, UniProt Q04771, R206H); experiment: ALK binding assay (LANTHASCREEN TR-FRET competitive binding, displacement of Kinase Tracer 178); details: read-out: Binding Assay (IC50 class)
T1 construct: purchased Carna Bioscience or ThermoFisher 09-148 or PV6232
T1 sequence (Q04771 21-509 R206H): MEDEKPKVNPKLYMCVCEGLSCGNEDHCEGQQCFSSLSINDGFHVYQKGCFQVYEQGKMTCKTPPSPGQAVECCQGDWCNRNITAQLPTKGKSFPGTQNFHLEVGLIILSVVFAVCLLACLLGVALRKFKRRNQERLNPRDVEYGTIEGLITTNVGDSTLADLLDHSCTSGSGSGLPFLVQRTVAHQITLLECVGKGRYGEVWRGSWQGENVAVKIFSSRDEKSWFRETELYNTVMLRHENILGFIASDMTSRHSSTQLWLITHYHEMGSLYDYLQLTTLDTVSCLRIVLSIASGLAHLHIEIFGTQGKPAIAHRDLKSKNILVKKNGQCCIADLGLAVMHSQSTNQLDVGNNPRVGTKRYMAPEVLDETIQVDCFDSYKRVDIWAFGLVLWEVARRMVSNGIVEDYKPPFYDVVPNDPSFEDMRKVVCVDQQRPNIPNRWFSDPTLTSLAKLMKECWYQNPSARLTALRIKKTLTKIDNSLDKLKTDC
Summary of the method: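 GST-tagged ALK2 R206H (2-5 nM) mixed with Eu-anti-GST antibody (4-10 nM), Kinase Tracer 178 (50 nM, near its Kd) and compound titration (1% DMSO) in Kinase Buffer A, 30 min at room temperature. Tracer displacement read as TR-FRET ratio, normalized to controls; IC50 from 4-parameter fit.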

[2] = target: T2, human ALK2 R206H (Homo sapiens, UniProt Q04771, R206H); experiment: Cell-based ALK2-R206H cell activity assay (Smad1-Ser463/Ser465 phosphorylation by AlphaLISA in HEK293-ALK2-R206H cells); details: phospho-Smad1 AlphaLISA, read-out: Cell Line (Cell Assay, IC50 class)
T2 construct: expressed in transfected cells; host or cells: HEK293 (ATCC CRL1573), lentivirus transduction, blasticidin selection
T2 sequence (Q04771 21-509 R206H): T1 sequence (Q04771 21-509 R206H)
Procedure: Example 11. Cell-Based ALK2-R206H Cell Activity Assay
A HEK293 (ATCC, Cat No. CRL1573) based stable cell line expressing human ALK2 R206H cDNA (synthesized by GeneScript, Piscataway, N.J.) and a FLAG tag at the C-terminus was generated by lentivirus transduction and subsequent blasticidin (Life Technologies, Cat No. A1113902) selection at 10 μg/ml for >2 wks. This cell line was named HEK293-ALK2-R206H.
B. Measurement of Smad1-Ser463/Ser465 Phosphorylation by AlphaLISA
HEK293-ALK2-R206H cells were grown, harvested, and then resuspended in serum-free, phenol red-free DMEM high glucose media (Life Technologies, Cat No. 31053). The media also contained 50 units/ml penicillin and 50 μg/ml streptomycin (Life Technologies, Cat. No. 15070-063). HEK293-ALK2-R206H cells were then plated in white opaque 384-wells microplates (2×10^4/well) (OptiPlate-384, PerkinElmer, Waltham, Mass., Cat No. 6007299) overnight (>16h) at 37° C. 5% CO2 for use in the assay.
Test compounds were first diluted to 4 mM or 0.4 mM and then serially diluted 3-fold into 10 different concentrations using DMSO. Each concentration of compound was further diluted 40-fold with phenol red-free DMEM (Life Technologies, Cat No. 31053). 2 μl of the diluted compounds were then dispensed into the HEK293-ALK2-R206H cell-containing wells of the microplates in duplicates. In this way, each compound was tested in 10 doses (3-fold serial dilution with the top concentration being 10 μM or 1 μM). Liquid handling was achieved using a Bravo Automated Liquid Handling Platform (Agilent Technologies). DMSO without compound was used as a negative control. The positive control was 1 μM LDN193189, a known bone morphogenetic protein (BMP inhibitor).
After 2-3 hours of incubation with test compound or control, the cells were lysed and signal was developed using ALPHASCREEN® SUREFIRE® SMAD1 (p-Ser463/465) cellular kinase assay kit (PerkinElmer, Cat No. TGRSM1S10K) following the manufacturer's recommended protocol. The microplates were read using Perkin Elmer ENVISION® plate reader (emission […]). The signal reflected the level of phospho-Ser/463/465-Smad1 in the lysate. The raw data were plotted using the DMSO negative and LDN193189 positive controls as the 0% and 100% inhibition, respectively. The 10-point dose response curve was used to calculate the IC50 values.
The results of this assay are shown in Table 3 in the column labeled “Cell Assay” wherein “A” represents an IC50 of less than or equal to 100 nM; “B” an IC50 of greater than 100 nM and less than or equal to 500 nM; “C” an IC50 of greater than 500 nM. Blank values in the table indicate that the particular compound was not tested in this assay.

| Compound | IC50 [1] [nM] | IC50 [2] [nM] |
| --- | --- | --- |
| Cc1nc(-c2[nH]c3nccc(N4CCN(C(=O)OCC(F)F)CC4)c3c2Cl)cn1C [Compound 363] | ≤ 10 | ≤ 100 |
| Cn1ncc(-c2[nH]c3nccc(N4CCN(C(=O)OC5COC5)CC4)c3c2C#N)n1 [Compound 215] | ≤ 10 | 100 to 500 |
| CCc1cnc(-c2cc3c(N4CCN(C(=O)OC5COC5)CC4)ccnc3[nH]2)s1 [Compound 249] | ≤ 10 | ≤ 100 |
| O=C(OC1COC1)N1CCN(c2ccnc3[nH]c(-c4nc5c(s4)COCC5)cc23)CC1 [Compound 371] | ≤ 10 | ≤ 100 |
| Cc1cc(-c2cc3c(N4CCN(C(=O)OC5COC5)CC4)ccnc3[nH]2)cs1 [Compound 169] | ≤ 10 | ≤ 100 |
| O=C(OC1COC1)N1CCN(c2ccnc3[nH]c(-c4ccc(C5=CCOCC5)cc4)cc23)CC1 [Compound 425] | ≤ 10 | ≤ 100 |
| Cn1cnc(-c2[nH]c3nccc(N4CCN(C(=O)O[C@H]5CCC5(F)F)CC4)c3c2C#N)c1 [Compound 369] | ≤ 10 | ≤ 100 |
| Cc1csc(-c2cc3c(N4CCN(C(=O)OC5COC5)CC4)ccnc3[nH]2)n1 [Compound 173] | ≤ 10 | 100 to 500 |
| N#Cc1c(-c2nc3c(s2)COCC3)[nH]c2nccc(N3CCN(C(=O)OCC(F)F)CC3)c12 [Compound 440] | ≤ 10 | ≤ 100 |
| N#Cc1c(-c2cn3c(n2)COCC3)[nH]c2nccc(N3CCN(C(=O)OC4COC4)CC3)c12 [Compound 394] | ≤ 10 | ≤ 100 |
| Cn1cc(-c2cc3c(N4CCN(C(=O)CC5CCCC5)CC4)ccnc3[nH]2)cn1 [Compound 135] | ≤ 10 | 100 to 500 |
| Cc1nc(-c2cc3c(N4CCN(C(=O)O[C@@H]5CC(F)(F)C5(F)F)CC4)ccnc3[nH]2)cn1C [Compound 433] | ≤ 10 | ≤ 100 |
| CC(C)n1cnc(-c2[nH]c3nccc(N4CCN(C(=O)OC5COC5)CC4)c3c2C#N)c1 [Compound 350] | ≤ 10 | ≤ 100 |
| Cc1nc(-c2cc3c(N4CCN(C(=O)O[C@H]5C[C@@H](F)C5)CC4)ccnc3[nH]2)cn1C [Compound 243] | ≤ 10 | ≤ 100 |
| O=C(C1CC1)N1CCN(c2ccnc3[nH]c(-c4ccc(F)cc4)cc23)CC1 [Compound 19] | ≤ 10 | 100 to 500 |
| CC(C)c1csc(-c2cc3c(N4CCN(C(=O)OC5COC5)CC4)ccnc3[nH]2)n1 [Compound 317] | ≤ 10 | 100 to 500 |
| Cn1cc(-c2cc3c(N4CCN(C(=O)O[C@H]5C[C@@H](O)C5)CC4)ccnc3[nH]2)cn1 [Compound 149] | ≤ 10 | 100 to 500 |
| Cc1nc(-c2cc3c(N4CCN(C(=O)OC5COC5)CC4)ccnc3[nH]2)cs1 [Compound 170] | ≤ 10 | ≤ 100 |
| Cc1nc(-c2cc3c(N4CCN(C(=O)OC5CC(F)(F)C5)CC4)ccnc3[nH]2)cn1C [Compound 325] | ≤ 10 | ≤ 100 |

| Compound | IC50 [1] [nM] | IC50 [2] [nM] |
| --- | --- | --- |
| CN1CCN(c2ccc(-c3cc4c(N5CCN(C(=O)C6CC6)CC5)ccnc4[nH]3)cn2)CC1 [Compound 382] | ≤ 10 | ≤ 100 |
| CC(C)(C#N)c1ccc(-c2cc3c(N4CCN(C(=O)OC5COC5)CC4)ccnc3[nH]2)nc1 [Compound 383] | ≤ 10 | ≤ 100 |
| CCc1nc(-c2cc3c(N4CCN(C(=O)OC5COC5)CC4)ccnc3[nH]2)cs1 [Compound 248] | ≤ 10 | ≤ 100 |
| Cn1cnc(-c2[nH]c3nccc(N4CCN(C(=O)OC5COC5)CC4)c3c2Cl)c1 [Compound 274] | ≤ 10 | ≤ 100 |
| O=C(C1CC1)N1CCN(c2ccnc3[nH]c(-c4ccc(C5CCOC5)cc4)cc23)CC1 (stereo not shown) [Compound 270] | ≤ 10 | ≤ 100 |
| O=C(O[C@H]1C[C@H](F)C1)N1CCN(c2ccnc3[nH]c(-c4cn(C(F)F)cn4)cc23)CC1 [Compound 345] | ≤ 10 | ≤ 100 |
| CC(C)N1CCC[C@@H](c2ccc(-c3cc4c(N5CCN(C(=O)OC6COC6)CC5)ccnc4[nH]3)cc2)C1 [Compound 466] | ≤ 10 | ≤ 100 |
| Cc1cnc(-c2cc3c(N4CCN(C(=O)C5CC5)CC4)ccnc3[nH]2)s1 [Compound 34] | ≤ 10 | 100 to 500 |
| CCN1CCC(c2ccc(-c3cc4c(N5CCN(C(=O)C6CC6)CC5)ccnc4[nH]3)cc2)C(F)C1 (stereo not shown) [Compound 442] | ≤ 10 | ≤ 100 |
| Cc1c(-c2cnn(C)c2)[nH]c2nccc(N3CCN(C(=O)OC4COC4)CC3)c12 [Compound 148] | ≤ 10 | 100 to 500 |
| Cc1cc(-c2cc3c(N4CCN(C(=O)OC5COC5)CC4)ccnc3[nH]2)on1 [Compound 104] | ≤ 10 | 100 to 500 |
| CCOC(=O)N1CCN(c2ccnc3[nH]c(-c4ccc(OC(C)C)cc4)cc23)CC1 [Compound 221] | ≤ 10 | 100 to 500 |
| Cc1nc(-c2[nH]c3nccc(N4CCN(C(=O)OC5COC5)CC4)c3c2C#N)cn1C [Compound 288] | ≤ 10 | ≤ 100 |
| COc1nc(-c2cc3c(N4CCN(C(=O)OC5COC5)CC4)ccnc3[nH]2)cs1 [Compound 259] | ≤ 10 | 100 to 500 |
| COC1(c2ccc(-c3cc4c(N5CCN(C(=O)OC6COC6)CC5)ccnc4[nH]3)nc2)CCN(C[C@H](C)F)CC1 [Compound 478] | ≤ 10 | ≤ 100 |
| O=C(OC1COC1)N1CCN(c2ccnc3[nH]c(-c4csc(N5CCC(O)CC5)n4)cc23)CC1 [Compound 450] | ≤ 10 | 100 to 500 |
| CCOC(=O)N1CCN(c2ccnc3[nH]c(-c4cnn(C5COC5)c4)cc23)CC1 [Compound 145] | ≤ 10 | ≤ 100 |
| CN(C)c1nc(-c2cc3c(N4CCN(C(=O)OC5COC5)CC4)ccnc3[nH]2)cn1C [Compound 310] | ≤ 10 | ≤ 100 |
| CCOC(=O)N1CCN(c2ccnc3[nH]c(-c4cnn(C)c4)cc23)CC1 [Compound 11] | ≤ 10 | 100 to 500 |
